Molecules are shown by their SMILES. ≈ marks a conversion by molar mass, not a printed value.

Data set [1] is described as follows: Oral bioavailability in rat at 20 mg/kg. Type of data set: ADME, organism-based. The note with it: in vivo.
Data set [2] is described as follows: Inhibition of anti-IgM-stimulated CD20+ B cell activation in human whole blood assessed as measuring CD69 expression level pretreated for 1 hr followed by anti-IgM stimulation measured after 18 hrs by flow cytometry. In general terms: Flow cytometry measures light scatter and fluorescence of single cells or particles in a stream.
Data set [3] addresses Receptor tyrosine-protein kinase erbB-4 (Homo sapiens, UniProt Q15303). The experiment in a line: Inhibition of ERBB4 (unknown origin) using peptide substrate in presence of ATP by caliper electrophoresis method.
Data set [4] addresses T1, Tyrosine-protein kinase ITK/TSK (Homo sapiens, UniProt Q08881).
T1 sequence (Q08881 whole entry): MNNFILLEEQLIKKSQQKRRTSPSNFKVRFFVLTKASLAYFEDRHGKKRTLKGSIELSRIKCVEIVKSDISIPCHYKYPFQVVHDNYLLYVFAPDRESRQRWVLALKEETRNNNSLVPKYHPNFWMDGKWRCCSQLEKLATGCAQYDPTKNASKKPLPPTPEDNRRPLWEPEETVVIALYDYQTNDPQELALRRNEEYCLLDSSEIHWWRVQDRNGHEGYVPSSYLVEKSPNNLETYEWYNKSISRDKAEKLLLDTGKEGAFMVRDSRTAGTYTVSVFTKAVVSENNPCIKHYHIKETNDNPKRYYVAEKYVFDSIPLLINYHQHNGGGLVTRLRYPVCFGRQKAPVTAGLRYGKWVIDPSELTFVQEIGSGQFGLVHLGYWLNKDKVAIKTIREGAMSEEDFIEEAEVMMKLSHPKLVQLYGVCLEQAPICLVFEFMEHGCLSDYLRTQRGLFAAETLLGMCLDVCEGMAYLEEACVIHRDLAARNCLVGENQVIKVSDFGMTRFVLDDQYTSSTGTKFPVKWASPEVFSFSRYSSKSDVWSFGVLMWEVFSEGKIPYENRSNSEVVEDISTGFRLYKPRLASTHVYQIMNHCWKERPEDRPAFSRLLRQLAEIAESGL
The experiment in a line: Inhibition of ITK (unknown origin) using peptide substrate in presence of ATP by caliper electrophoresis method.

Data set [5] addresses T2, Tyrosine-protein kinase JAK3 (Homo sapiens, UniProt P52333).
T2 sequence (P52333 whole entry): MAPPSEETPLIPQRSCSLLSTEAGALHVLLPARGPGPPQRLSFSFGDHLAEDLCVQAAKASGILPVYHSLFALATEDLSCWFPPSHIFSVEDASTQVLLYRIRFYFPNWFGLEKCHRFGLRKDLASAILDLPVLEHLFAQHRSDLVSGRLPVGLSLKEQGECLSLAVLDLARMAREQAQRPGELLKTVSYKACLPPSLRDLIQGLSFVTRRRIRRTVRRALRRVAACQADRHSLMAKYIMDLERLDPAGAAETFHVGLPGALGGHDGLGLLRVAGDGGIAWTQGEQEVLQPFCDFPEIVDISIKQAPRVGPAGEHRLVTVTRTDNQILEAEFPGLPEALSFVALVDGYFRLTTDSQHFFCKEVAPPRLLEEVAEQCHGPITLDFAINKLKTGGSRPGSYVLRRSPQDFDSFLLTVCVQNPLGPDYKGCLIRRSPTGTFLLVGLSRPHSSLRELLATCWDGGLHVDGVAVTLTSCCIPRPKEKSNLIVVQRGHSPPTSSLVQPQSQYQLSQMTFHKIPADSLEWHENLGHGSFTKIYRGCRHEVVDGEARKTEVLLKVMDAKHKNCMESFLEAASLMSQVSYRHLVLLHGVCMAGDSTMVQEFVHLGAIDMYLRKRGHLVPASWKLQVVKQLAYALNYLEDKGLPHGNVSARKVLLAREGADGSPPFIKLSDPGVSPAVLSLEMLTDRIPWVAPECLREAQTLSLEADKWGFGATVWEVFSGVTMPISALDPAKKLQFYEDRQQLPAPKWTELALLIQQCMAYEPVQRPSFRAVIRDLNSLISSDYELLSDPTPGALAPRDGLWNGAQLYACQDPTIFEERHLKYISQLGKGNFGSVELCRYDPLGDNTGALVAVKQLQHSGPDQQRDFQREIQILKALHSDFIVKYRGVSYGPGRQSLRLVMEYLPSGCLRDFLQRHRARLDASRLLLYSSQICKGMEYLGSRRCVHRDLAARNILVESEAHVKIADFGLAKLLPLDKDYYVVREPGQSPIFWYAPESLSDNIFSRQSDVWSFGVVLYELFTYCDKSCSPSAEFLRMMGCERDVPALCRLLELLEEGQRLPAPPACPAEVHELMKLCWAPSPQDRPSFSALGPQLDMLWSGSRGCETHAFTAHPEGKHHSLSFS
Briefly: Inhibition of JAK3 (unknown origin) using peptide substrate in presence of ATP by caliper electrophoresis method.

Data set [6] deals with T3, Tyrosine-protein kinase TXK (Homo sapiens, UniProt P42681).
T3 sequence (P42681 whole entry): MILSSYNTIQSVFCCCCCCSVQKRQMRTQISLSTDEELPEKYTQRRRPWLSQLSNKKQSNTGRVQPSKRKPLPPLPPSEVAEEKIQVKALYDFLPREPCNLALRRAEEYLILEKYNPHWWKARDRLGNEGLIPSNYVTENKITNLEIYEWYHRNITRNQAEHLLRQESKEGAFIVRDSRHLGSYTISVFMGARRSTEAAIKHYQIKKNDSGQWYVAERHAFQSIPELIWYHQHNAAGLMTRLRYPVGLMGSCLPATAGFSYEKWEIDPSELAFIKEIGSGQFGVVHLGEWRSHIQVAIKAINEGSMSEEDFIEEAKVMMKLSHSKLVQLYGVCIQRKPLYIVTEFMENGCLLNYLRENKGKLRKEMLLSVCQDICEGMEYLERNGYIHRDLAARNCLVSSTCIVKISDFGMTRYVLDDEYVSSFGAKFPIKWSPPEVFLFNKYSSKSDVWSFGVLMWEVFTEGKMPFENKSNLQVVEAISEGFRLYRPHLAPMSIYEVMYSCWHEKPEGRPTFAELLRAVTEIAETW
The experiment in a line: Inhibition of RLK (unknown origin) using peptide substrate in presence of ATP by caliper electrophoresis method.

Data set [7] is described as follows: Permeability across apical to basolateral membrane in human Caco-2 cells. The format is ADME, cell-based. The note with it: read-out: permeability. On the technique in general: Passage across Caco-2 layers is used to estimate intestinal permeability.
Data set [8] in a line: Solubility of compound in PBS at pH 7 by LCMS/MS analysis. Type of data set: physicochemical.

Chain of Receptor tyrosine-protein kinase erbB-4 (Q15303 whole entry): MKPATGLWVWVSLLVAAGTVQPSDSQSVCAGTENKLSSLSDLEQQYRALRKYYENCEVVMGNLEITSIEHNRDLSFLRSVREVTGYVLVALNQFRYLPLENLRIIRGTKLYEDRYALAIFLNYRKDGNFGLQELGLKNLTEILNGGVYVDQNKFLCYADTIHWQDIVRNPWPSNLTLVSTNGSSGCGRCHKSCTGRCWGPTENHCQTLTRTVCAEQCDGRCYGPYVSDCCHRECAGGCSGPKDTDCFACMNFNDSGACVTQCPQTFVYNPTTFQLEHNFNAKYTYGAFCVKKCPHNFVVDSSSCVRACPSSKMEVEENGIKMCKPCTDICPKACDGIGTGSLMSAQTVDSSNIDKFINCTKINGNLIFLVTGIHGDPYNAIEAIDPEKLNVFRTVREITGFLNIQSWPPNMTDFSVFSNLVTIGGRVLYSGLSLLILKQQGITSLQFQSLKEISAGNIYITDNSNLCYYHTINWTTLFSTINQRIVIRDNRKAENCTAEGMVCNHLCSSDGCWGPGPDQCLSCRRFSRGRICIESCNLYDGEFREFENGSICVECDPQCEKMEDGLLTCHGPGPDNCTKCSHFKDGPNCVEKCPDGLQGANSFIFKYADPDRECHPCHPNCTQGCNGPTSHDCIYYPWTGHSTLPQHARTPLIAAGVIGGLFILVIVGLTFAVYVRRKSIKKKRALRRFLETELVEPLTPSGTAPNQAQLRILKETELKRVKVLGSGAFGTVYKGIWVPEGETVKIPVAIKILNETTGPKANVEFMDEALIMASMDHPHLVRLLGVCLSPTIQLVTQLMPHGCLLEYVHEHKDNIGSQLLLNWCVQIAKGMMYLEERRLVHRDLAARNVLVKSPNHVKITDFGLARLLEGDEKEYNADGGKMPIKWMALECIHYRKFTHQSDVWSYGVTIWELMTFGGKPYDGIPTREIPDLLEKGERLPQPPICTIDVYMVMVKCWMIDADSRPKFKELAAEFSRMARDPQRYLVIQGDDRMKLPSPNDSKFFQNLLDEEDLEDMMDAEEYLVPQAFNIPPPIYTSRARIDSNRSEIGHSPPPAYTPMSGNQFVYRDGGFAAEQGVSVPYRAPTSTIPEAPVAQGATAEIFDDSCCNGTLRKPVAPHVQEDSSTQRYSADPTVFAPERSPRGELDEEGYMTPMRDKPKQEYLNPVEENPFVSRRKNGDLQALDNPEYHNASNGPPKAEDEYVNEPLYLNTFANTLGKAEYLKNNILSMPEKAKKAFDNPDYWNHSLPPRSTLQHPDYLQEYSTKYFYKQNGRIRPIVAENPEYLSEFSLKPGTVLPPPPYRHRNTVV

`CC(C)(/C=C(/C#N)C(=O)N1CCC[C@@H]1Cn1nc(-c2ccc(Oc3ccccc3)cc2F)c2c(N)ncnc21)N1CCOCC1`: the bioavailability in data set [1] amounted to 17.3%. Further, the half-maximal inhibitory concentration (IC50) in data set [2] was 149 nM; in data set [3] it was 177 nM; in data set [4] it was above 5000 nM; in data set [5], above 5 µM; in data set [6], 44.8 nM. In addition, the Papp A→B in data set [7] was determined as 6.8 ×10⁻⁶ cm/s. Besides, the solubility in data set [8] was 215 µM (≈ 131 µg/mL).

`CC(C)(C)/C=C(\C#N)C(=O)N1CCC[C@@H](n2nc(-c3ccc(Oc4ccccc4)cc3F)c3c(N)ncnc32)C1` [ATUZABRUTINIB] yielded a F in data set [1] (po, 20 mg/kg) of 21.1%. Besides, the IC50 in data set [2] was 216 nM; in data set [3], 22 nM; in data set [4], 303 nM; in data set [5], above 5 µM; in data set [6], 3.4 nM. For the same compound, in data set [7], the Papp A→B was determined as 0.5 ×10⁻⁶ cm/s. For the same compound, the concentration in solution in data set [8] (solubility) came to 2.1 µM (≈ 1.13 µg/mL).

For `CN1CCN(C(C)(C)/C=C(\C#N)C(=O)N2CCC[C@@H](n3nc(-c4ccc(Oc5ccccc5)cc4F)c4c(N)ncnc43)C2)CC1`, the bioavailability in data set [1] is 20.2%. Also, the 50% inhibitory concentration (IC50) in data set [2] is 117 nM; in data set [3], 41 nM; in data set [4], 110 nM; in data set [5] it was above 5 µM; in data set [6] it was 1.2 nM. In addition, the Papp A→B in data set [7] stood at 1 ×10⁻⁶ cm/s. In data set [8], the concentration in solution (solubility) was 315 µM (≈ 196 µg/mL).

For orientation: bioavailability means dose-corrected exposure relative to a reference, in per cent. Low readings indicate little systemic uptake, high ones much systemic uptake. The IC50 is the concentration that gives 50% inhibition. One may read the solubility as the concentration that dissolves in the medium under given conditions.

The record behind these values is ChEMBL document CHEMBL5104103 (J Med Chem, 2022).
